# Read-outs that look alike come from different tables or passages of the source.
# Tests used:
# [1] = Quenching of gastrin tryptophan fluorescence by bismuth ions; assay type: binding; conditions: pH 4.0
# Description: Values from the indicated number of independent experiments were combined to obtain the mean values (±S.E.) presented above.
# CCK-2 receptor [2] = target: T1, CCK-2 receptor (Homo sapiens, UniProt P32239); assay: [125I]-BH-CCK8 displacement, CCK-2 receptor on Jurkat cells; assay type: binding
# T1 sequence (P32239 1-447): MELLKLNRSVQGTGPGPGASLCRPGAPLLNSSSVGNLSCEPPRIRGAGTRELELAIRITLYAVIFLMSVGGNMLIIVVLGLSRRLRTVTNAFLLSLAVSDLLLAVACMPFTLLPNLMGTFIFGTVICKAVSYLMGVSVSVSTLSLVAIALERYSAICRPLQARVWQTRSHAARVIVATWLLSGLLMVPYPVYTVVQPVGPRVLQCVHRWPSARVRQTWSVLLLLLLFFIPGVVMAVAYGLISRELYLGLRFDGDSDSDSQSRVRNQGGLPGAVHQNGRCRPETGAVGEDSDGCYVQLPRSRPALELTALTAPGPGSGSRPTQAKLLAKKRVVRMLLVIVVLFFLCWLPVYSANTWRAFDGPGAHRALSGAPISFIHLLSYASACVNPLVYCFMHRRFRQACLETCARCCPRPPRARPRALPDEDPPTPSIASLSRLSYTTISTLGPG
# Experimental: (§1) Non-specific binding was evaluated with […] of unlabelled CCK8. Incubation was stopped by adding 2 ml of ice-cold PBS containing 2% bovine serum albumin. After centrifugation, supernatants were removed and the radioactivity bound to the cell membranes was measured in a γ-counter (LKB, Wallac, Finland).
# CCK-2 receptor [3] = target: T1, CCK-2 receptor; assay: Gamide-stimulated inositol phosphate production in COS-7 cells transfected with the CCK-2 receptor; assay type: cell-based; set-up: COS-7 cells transiently transfected with CCK-2 receptor cDNA; expressed in transfected cells; host or cells: COS-7
# Experimental: (§2) Intracellular inositol phosphate production was determined as described previously (Qian et al, 1993). IMGE-5 cells (10^5 cells/ml) were plated in 24-multiwell culture plates in DMEM supplemented with 10% FBS, 200 IU/ml penicillin and 200 μg/ml streptomycin. 24 h later, cells were incubated with DMEM supplemented with antibiotics and Myo-[2-^3H]inositol (2.5 μCi/well) and shifted to 39° C. for 16 h. Cells were then washed with pre-warmed DMEM and incubated (20-30 minutes, 37° C.) with DMEM supplemented with 20 mM LiCl. Loaded cells were then washed in 1 ml of IP buffer (135 mM NaCl, 20 mM N-(2-hydroxyethyl)piperazine-N′-(2-ethanesulfonic acid), 2 mM CaCl2, 1.2 mM MgSO4, 1 mM ethylene glycol-bis(2-aminoethylether)-N,N,N′,N′-tetraacetic acid, 10 mM LiCl, and 0.5% bovine serum albumin, pH 7.45) and incubated with or without agonist in a final volume of 0.5 ml of IP buffer. After 1-h incubation at 37° C., the reaction was stopped by removing the incubation medium and adding 1 ml of a mixture of ethanol/HCl (2000:1; v/v). One ml of each aliquot was applied to a column containing 1.6 ml of a 1:2 (v/v) Dowex AG-1-X8 anion exchange resin in distilled water. The columns were washed with 4 ml of distilled water, followed by 4 ml of 40 mM HCOONH4, and inositol phosphates were eluted with 4 ml of 1 M HCOONH4. The radioactivity of each eluate was counted after addition of Complete phase combining system solution (Amersham, UK). For the positive control, IMGE-5 cells were incubated with a combination of 30 mM NaF and 10 μM AlCl3 under the same experimental conditions.
# Gamide-stimulated inositol phosphate production was measured in COS-7 cells transfected with the CCK-2 receptor. […] Bismuth ions alone had no effect on inositol phosphate production in CCK-2 receptor-transfected COS-7 cells and HT29 cells, even at the highest concentration tested.
# We then investigated the role of the individual glutamates in biological activity. The effects of the mutants GamideE7A and GamideE8,9A on inositol phosphate production in COS-7 cells transiently transfected with the CCK-2 receptor were compared.
# CCK-2 receptor [4] = target: T1, CCK-2 receptor; assay: [125I]-BH-CCK8 displacement, CCK-2 receptor on transiently transfected COS-7 cells; assay type: binding; set-up: COS-7 cells transiently transfected with CCK-2 receptor cDNA; expressed in transfected cells; host or cells: COS-7
# Experimental: as §1
# The lines of best fit shown in FIG. 21 were obtained by nonlinear regression to a single site model with the program Sigmaplot.
# [5] = test system: HT29 human colorectal carcinoma cells; assay: Ggly-stimulated inositol phosphate production in HT29 cells; assay type: cell-based
# Experimental: as §2
# (§3) Ggly-stimulated inositol phosphate production was measured in HT29 human colorectal carcinoma cells.
# HT29 cells = assay: HT29 cell proliferation, MTT assay; assay type: cell-based, human
# [6] = test system: AGS gastric carcinoma cells; assay: AGS cell proliferation, MTT assay; assay type: cell-based, human; conditions: treatment alone: 10 nM Ggly; 32 mol/mol Bi without Ggly; fetal calf serum positive control
# rectal mucosa = assay: Proliferation in the rectal mucosa of rectally defunctioned rats (metaphase-arrested cells); assay type: in vivo; conditions: colloidal bismuth subcitrate 135 mg/kg/12 hours oral gavage 5 days per week, 4 weeks; Ggly 2.5 nmol/kg/hr
# Experimental: DFO (400 mg/kg) was administered intraperitoneally thrice weekly, and bismuth ions were administered as colloidal bismuth subcitrate (135 mg/kg/12 hours) by oral gavage 5 days per week. After 4 weeks, the rats were injected with vincristine to arrest cycling cells in metaphase, and sacrificed 3 hrs later. Crypt heights in the rectal mucosa, and the number of metaphase arrested cells per crypt, were then determined microscopically.
# CCK-2 receptor [7] = target: T1, CCK-2 receptor; assay: Gamide-stimulated proliferation in CHO cells stably transfected with the CCK-2 receptor; assay type: cell-based; set-up: expressed in transfected cells; host or cells: CHO
# [8] = test system: IMGE-5 gastric epithelial cells; assay: Ggly-stimulated inositol phosphate production in IMGE-5 cells; assay type: cell-based, mice
# Experimental: as §2, with “The columns were washed with 4 ml of distilled water, followed by 4 ml of 40 mM HCOONH4, and inositol phosphates were eluted with 4 ml of 1 M HCOONH4.” left out, “For the positive control, IMGE-5 cells were incubated with a combination of 30 mM NaF and 10 μM AlCl3 under the same experimental conditions.” left out
# as §3
# [9] = read-out: Kd for binding of ferric ions to Ggly; pH 4.0; taken from Baldwin et al. (2001); cited from earlier work
# [10] = binding in the absence of competitor, fitted, mean ± S.E.
# [11] = presence and absence of 1 μM DFO
# [12] = single experiment, presence and absence of 1 μM DFO
molecule,measurement,setting,value
CSCC[C@H](NC(=O)[C@H](Cc1c[nH]c2ccccc12)NC(=O)CNC(=O)[C@H](Cc1ccc(O)cc1)NC(=O)[C@H](C)NC(=O)[C@H](CCC(=O)O)NC(=O)[C@H](CCC(=O)O)NC(=O)[C@H](CCC(=O)O)NC(=O)[C@H](CCC(=O)O)NC(=O)[C@H](CCC(=O)O)NC(=O)[C@H](CC(C)C)NC(=O)[C@H](Cc1c[nH]c2ccccc12)NC(=O)[C@@H]1CCCN1C(=O)CNC(=O)[C@@H]1CCC(=O)N1)C(=O)N[C@@H](CC(=O)O)C(=O)N[C@@H](Cc1ccccc1)C(N)=O [Gamide],Kd,"[1]; single experiment, two independent sites with identical affinities, read-out: Kd for bismuth ions, line of best fit of FIG. 11",8.6 ± 1.2 µM
same,Kd,"[1]; two identical independent binding sites, mean ± S.E. of 5 experiments, read-out: Bismuth Kd",8.2 ± 0.8 µM
same,% Maximum Binding (Jurkat),CCK-2 receptor [2]; [10],100.0 ± 3.1%
same,% Maximum Binding (Jurkat),CCK-2 receptor [2]; [11],99.0 ± 0.4%
same,"Ordinate intercept, FIG. 24B",CCK-2 receptor [2]; [12],99.6%
same,Stimulation of inositol phosphate production,CCK-2 receptor [3]; 10 nM peptide,No significant difference was observed in the extent of stimulation
same,Increase in inositol phosphate production,"CCK-2 receptor [3]; COS-7 cells transfected with the CCK-2 receptor, 10 μM AlF4−, 10 nM Gamide",4 fold
same,% Maximum Binding (COS-7),CCK-2 receptor [4]; [10],94.2 ± 2.4%
same,% Maximum Binding (COS-7),CCK-2 receptor [4]; [11],81.1 ± 1.7%
same,"Predicted ordinate intercept, FIG. 21",CCK-2 receptor [4]; single experiment,86.1%
same,"Ordinate intercept, FIG. 24A",CCK-2 receptor [4]; [12],81.1%
[Bi+3] [bismuth ions],Effect on Ggly-induced inositol phosphate production,"[5]; 2, 8, and 32 moles Bi3+/mole Ggly, 10 nM Ggly",significantly reduced this Ggly-induced stimulation
same,Effect of bismuth ions alone on inositol phosphate production,"[5]; HT29 cells, highest concentration tested",no effect
same,Effect on proliferation induced by Ggly,"HT29 cells; 2, 8 or 32 moles/mole, 10 nM Ggly, HT29",significantly decreased the proliferation induced by Ggly
same,Effect of bismuth ions alone on proliferation,"HT29 cells; HT29, highest concentrations tested",no effect
same,"Mean Response ± SEM (% Control), proliferation of AGS cells",[6],102.2 ± 4.2 % Control
same,Effect on stimulation of proliferation of the rectal mucosa by Ggly,rectal mucosa,completely abolished
same,Effect on Gamide-stimulated proliferation,CCK-2 receptor [7],did not significantly inhibit
same,Effect on Gamide-induced inositol phosphate production,"CCK-2 receptor [3]; 2, 8, and 32 moles Bi3+/mole Gamide, 10 nM Gamide",no significant effect
same,Effect of bismuth ions alone on inositol phosphate production,"CCK-2 receptor [3]; CCK-2 receptor-transfected COS-7 cells, highest concentration tested",no effect
same,Effect on binding of CCK8 to the CCK-2 receptor,"CCK-2 receptor [4]; 2, 8 or 32 moles/mole, transfected COS-7 cells (FIG. 16)",no effect
"Ggly: glycine-extended gastrin17, 18 amino acid non-amidated gastrin, SEQ ID NO:4, residues 55-72 of progastrin (XGPWLEEEEEAYGWMDFG; (1)..(1) pyroglutamate; listed as Homo sapiens)",Inositol phosphate production compared to the control,"[5]; HT29 cells, 10 nM Ggly",225%
same,Ggly stimulation of inositol phosphate production compared to the control,[8],110%
same,HT29 cell proliferation compared to the control,"HT29 cells; 10 nM Ggly, MTT",120%
same,"Mean Response ± SEM (% Control), proliferation of AGS cells",[6],126.0 ± 2.3 % Control
same,Kd,[9],0.6 µM
